{
  "source": "patent US20180028480A1",
  "about": "“METHODS OF REDUCING OR PREVENTING OXIDATIVE MODIFICATION OF MEMBRANE POLYUNSATURATED FATTY ACIDS” (Amarin Pharmaceuticals Ireland Limited, priority 2015, published 2018)",
  "key": {"[1]": {"assay": "X-ray diffraction of cholesterol-enriched POPC membranes without oxidative conditions (Example 8)", "conditions": "5 mol %, 50 mol % cholesterol, 15° C., 20° C.", "description": "Values are mean±S.D. (N=3).\nFIGS. 18A-18C show representative x-ray diffraction patterns collected from cholesterol-enriched model membranes treated with vehicle (control), eicosapentaenoic acid (EPA), or docosahexaenoic acid (DHA) and examined at 15° C., 20° C., and 30° C. Membranes were reconstituted from POPC and cholesterol at 50 mol % cholesterol and treated with each of the various agents at 5 mol % (to match treatments used in corresponding lipid dynamics experiments). Each sample was maintained at 74% relative humidity by exposing the samples to a saturated solution of L-(+) tartaric acid. […] DHA, but not EPA or vehicle, induced the formation of cholesterol domains, which are indicated by a distinct set of diffraction peaks (shaded peaks) having a characteristic d-space value of 34 Å and shown to be stable over a broad range of temperatures.\nMultilamellar vesicles (MLVs) were prepared as binary mixtures of POPC and cholesterol at 50 mol %. MLVs with DLPC and cholesterol at cholesterol-to-phospholipid (C/P) mole ratios of 0.1:1 to 1.1:1 were also prepared in a similar manner. Component lipids (in chloroform) were transferred to borosilicate culture tubes and combined with vehicle (ethanol) or an equal volume of EPA, DHA, fenofibrate, niacin or gemfibrozil stock solution(s) and adjusted to achieve a drug-to-phospholipid (D/P) mole ratio of 1:30. Membranes reconstituted from POPC and cholesterol (at 50 mol % cholesterol) were treated with each of the various agents at 5 mol %. Samples were then shell-dried under nitrogen gas and placed under vacuum for 3 hours to remove residual solvent.\nMembrane samples were oriented for x-ray diffraction analysis as described in Mason, et al., J. Biol. Chem., vol. 281, pages 9337-45 (2006). Briefly, 100 μL aliquots of each MLV preparation (containing 250 μg of phospholipid) were transferred to Lucite sedimentation cells fitted with a removable aluminum foil substrate designed to collect MLVs into a single membrane pellet upon centrifugation. […]"}, "[2]": {"test_system": "sdLDL", "assay": "Copper-induced sdLDL oxidation (Example 7)", "format": "biochemical, human", "conditions": "10.0 μM; copper-induced oxidation 1 hour", "description": "An experiment to study the antioxidant effect of EPA in small dense LDL (“sdLDL”) was performed. sdLDL was isolated from human plasma by isopycnic centrifugation, separated into test samples of 200 μg/mL, and incubated at 37° C. for 30 min in the absence (vehicle) or presence of EPA, fenofibrate, niacin, or gemfibrozil, each at 10.0 μM. All samples, with the exception of non-oxidized sdLDL controls, were subjected to copper-induced oxidation for 1 hour. Human umbilical vein endothelial cells (HUVECs) were incubated with the various sdLDL samples, stimulated with calcium, and monitored for nitric oxide (NO) and peroxynitrite (ONOO^−) release using nanosensor technology."}},
  "data": [
    {"smiles": "CC/C=C\\C/C=C\\C/C=C\\C/C=C\\C/C=C\\CCCC(=O)O", "note": "[EPA, cis-5,8,11,14,17-Eicosapentaenoic acid]", "values": [
      {"measurement": "membrane width (d-space) compared to DHA or vehicle", "setting": "[1]; 30° C. (FIG. 17)", "result": "increased the width (d-space)"},
      {"measurement": "membrane cholesterol domain formation", "setting": "[1]; 30° C. (FIG. 18)", "result": "did not induce cholesterol domain formation"},
      {"measurement": "reduction of sdLDL oxidation compared to vehicle treatment", "setting": "[2]", "result": "> 90", "unit": "%"}
    ]}
  ]
}
